From ChEMBL document CHEMBL5137008, “Recent advances of antitumor shikonin/alkannin derivatives: A comprehensive overview focusing on structural classification, synthetic approaches, and mechanisms of action” (Eur J Med Chem, 2022)
Converted amounts (≈) assume the structure as drawn. Values belong to the compound of their own block, whether it stands above or below them.

Assays:
[1] = test system: MOLT-4; test: Anticancer activity against human MOLT-4 cells assessed as inhibition of cell proliferation incubated for 72 hrs by SRB assay; format: functional, cell-based; conditions: MOLT-4, 72 h
[2] = test system: A549; test: Anticancer activity against human A549 cells assessed as inhibition of cell proliferation incubated for 72 hrs by SRB assay; format: functional, cell-based; conditions: A549, 72 h
[3] = test system: SJRH30; test: Anticancer activity against human Rh30 cells assessed as inhibition of cell proliferation incubated for 72 hrs by SRB assay; format: functional, cell-based; conditions: SJRH30, 72 h
[4] = Anticancer activity against human A875 cells assessed as inhibition of cell growth incubated for 24 hrs by MTT assay; format: functional, cell-based; conditions: A875, 24 h
[5] = test system: HepG2; test: Anticancer activity against human HepG2 cells assessed as inhibition of cell growth incubated for 24 hrs by MTT assay; format: functional, cell-based; conditions: HepG2, 24 h
[6] = Cytotoxicity against human L02 cells assessed as inhibition of cell growth incubated for 24 hrs by MTT assay; format: toxicity, cell-based
[7] = Antitubulin activity against bovine brain tubulin polymerization preincubated with compound followed by GTP addition by turbidimetry-based spectrophotometric method; design: species or system Bos taurus
[8] = test system: HeLa; test: cells; conditions: Homo sapiens, 24 h
[9] = test system: SW872; test: Anticancer activity against human SW872 cells assessed as inhibition of cell growth incubated for 72 hrs by MTT assay; format: functional, cell-based; conditions: SW872, 72 h
[10] = Anticancer activity against human A875 cells assessed as inhibition of cell growth incubated for 72 hrs by MTT assay; format: functional, cell-based; conditions: A875, 72 h
[11] = test system: A549; test: Anticancer activity against human A549 cells assessed as inhibition of cell growth incubated for 72 hrs by MTT assay; format: functional, cell-based; conditions: A549, 72 h
[12] = test system: HeLa; test: Antiproliferative activity against human HeLa cells assessed as inhibition of cell proliferation incubated for 20 hrs by MTT assay; format: functional, cell-based
[13] = test system: HepG2; test: Antiproliferative activity against human HepG2 cells assessed as inhibition of cell proliferation incubated for 20 hrs by MTT assay; format: functional, cell-based; conditions: HepG2, 20 h
[14] = test system: MCF7; test: Antiproliferative activity against human MCF7 cells assessed as inhibition of cell proliferation incubated for 20 hrs by MTT assay; format: functional, cell-based; conditions: MCF7, 20 h
[15] = Antiproliferative activity against human BGC cells assessed as inhibition of cell proliferation incubated for 20 hrs by MTT assay; format: functional, cell-based
[16] = test system: A549; test: Antiproliferative activity against human A549 cells assessed as inhibition of cell proliferation incubated for 20 hrs by MTT assay; format: functional, cell-based; conditions: A549, 20 h
[17] = test system: L02; test: Antiproliferative activity against human L02 cells assessed as inhibition of cell proliferation incubated for 20 hrs by MTT assay; format: functional, cell-based; conditions: L02, 20 h
[18] = test system: U-87 MG; test: Anticancer activity against human U87 cells incubated for 48 hrs by MTT assay; format: functional, cell-based, U-87MG ATCC
[19] = test system: SMMC-7721; test: Anticancer activity against human SMMC-7721 cells incubated for 48 hrs by MTT assay; format: functional, cell-based; conditions: SMMC-7721, 48 h
[20] = test system: SGC-7901; test: Anticancer activity against human SGC-7901 cells incubated for 48 hrs by MTT assay; format: functional, cell-based; conditions: SGC-7901, 48 h, read-out: IC50
[21] = test system: MGC-803; test: Anticancer activity against human MGC-803 cells incubated for 48 hrs by MTT assay; format: functional, cell-based; conditions: MGC-803, 48 h
[22] = Cytotoxicity against human L02 cells incubated for 48 hrs by MTT assay; format: toxicity, cell-based
[23] = test system: A549; test: Antiproliferative activity against human A549 cells assessed as reduction in cell viability incubated for 24 hrs by MTT assay; format: functional, cell-based; conditions: A549, 24 h
[24] = test system: HeLa; test: Antiproliferative activity against human HeLa cells assessed as reduction in cell viability incubated for 24 hrs by MTT assay; format: functional, cell-based
[25] = test system: HepG2; test: Antiproliferative activity against human HepG2 cells assessed as reduction in cell viability incubated for 24 hrs by MTT assay; format: functional, cell-based; conditions: HepG2, 24 h
[26] = Cytotoxicity against human L02 cells assessed as reduction in cell viability incubated for 24 hrs by MTT assay; format: toxicity, cell-based
[27] = test system: L1210; test: Anticancer activity against mouse L1210 cells; format: functional; conditions: read-out: ED50 (the source's name)
[28] = test system: A549; test: Anticancer activity against human A549 cells; format: functional; conditions: read-out: ED50 (the source's name)
[29] = test system: Sarcoma-180; test: Antitumor activity against mouse Sarcoma-180 cells xenografted in ip dosed ICR mouse assessed as tumor growth inhibition rate administered daily for 7 days relative to control; format: functional; conditions: time 7 day

SMILES: CC(C)=CC[C@@H](OC(=O)CCCOc1ccc(Cl)cc1C)C1=CC(=O)c2c(O)ccc(O)c2C1=O
IC50 [4]: 1520 nM
IC50 [5]: 430 nM
IC50 at 24 h [6]: > 100 µM
IC50 [7]: 16.9 µM
IC50 [8]: 4.44 µM

SMILES: CC(C)=CC[C@@H](OC(=O)/C=C/c1cccc(C(F)(F)F)c1)C1=CC(=O)c2c(O)ccc(O)c2C1=O
IC50 [9]: 690 nM
IC50 [10]: 650 nM
IC50 [11]: 1620 nM

SMILES: CC(C)=CC[C@@H](OC(=O)/C=C/c1ccc(F)c(F)c1)C1=CC(=O)c2c(O)ccc(O)c2C1=O
IC50 [9]: 360 nM
IC50 [10]: 550 nM
IC50 [11]: 2100 nM

SMILES: CCCO/N=C/c1cc(O)c2c(c1O)C(=O)C=CC2=O
EC50 [27]: 0.107 µg/mL (≈ 0.389 µM)
EC50 [28]: > 10 µg/mL
T/C [29]: 229%

Further lines, with some results ahead:

IC50 [1]: 300 nM
IC50 [2]: 460 nM
SMILES: CC(C)=CC[C@@H](OC(=O)c1ccco1)C1=CC(=O)c2c(O)ccc(O)c2C1=O
IC50 [3]: 470 nM

IC50 [5]: 426 nM
IC50 [7]: 4.31 µM
IC50 [8]: 4.31 µM
SMILES: CC(C)=CC[C@@H](OC(=O)Cc1ccc(Oc2ccccc2)cc1)C1=CC(=O)c2c(O)ccc(O)c2C1=O
IC50 [4]: 1240 nM
IC50 at 24 h [6]: > 100 µM

IC50 [12]: 2920 nM
IC50 [13]: 1690 nM
IC50 [14]: 3.05 µM
IC50 [16]: > 100 µM
SMILES: CC(C)=CC[C@@H](OC(=O)C(Cc1ccccc1)N1C(=O)c2ccccc2C1=O)C1=CC(=O)c2c(O)ccc(O)c2C1=O (stereo partly drawn)
IC50 [15]: > 100 µM
IC50 [17]: > 100 µM

IC50 [12]: 1260 nM
IC50 [13]: 1920 nM
IC50 [14]: 3.55 µM
IC50 [16]: > 100 µM
SMILES: CC(C)=CC[C@@H](OC(=O)[C@@H](Cc1ccccc1)N1C(=O)C2C3C=CC(C3)C2C1=O)C1=CC(=O)c2c(O)ccc(O)c2C1=O (stereo partly drawn)
IC50 [15]: 11.6 µM
IC50 [17]: > 100 µM

IC50 [18]: 3.8 µM
IC50 [19]: 20.6 µM
IC50 [20]: 4.1 µM
IC50 [21]: 4.1 µM
SMILES: CC(C)=CC[C@@H](OC(=O)CCC(=O)Nc1ccc(Oc2ccccc2)cc1)C1=CC(=O)c2c(O)ccc(O)c2C1=O
IC50 at 48 h [22]: > 50 µM

IC50 [23]: 3.73 µM
IC50 [24]: 3.47 µM
IC50 [25]: 759 nM
SMILES: CC(C)=CC[C@@H](OC(=O)C1CC1)C1=CC(=O)c2c(O)ccc(O)c2C1=O
IC50 at 24 h [26]: > 100 µM
